Assay [1] addresses T1, SLC26A3 (Mus musculus, UniProt Q9WVC8).
T1 sequence (Q9WVC8 1-757): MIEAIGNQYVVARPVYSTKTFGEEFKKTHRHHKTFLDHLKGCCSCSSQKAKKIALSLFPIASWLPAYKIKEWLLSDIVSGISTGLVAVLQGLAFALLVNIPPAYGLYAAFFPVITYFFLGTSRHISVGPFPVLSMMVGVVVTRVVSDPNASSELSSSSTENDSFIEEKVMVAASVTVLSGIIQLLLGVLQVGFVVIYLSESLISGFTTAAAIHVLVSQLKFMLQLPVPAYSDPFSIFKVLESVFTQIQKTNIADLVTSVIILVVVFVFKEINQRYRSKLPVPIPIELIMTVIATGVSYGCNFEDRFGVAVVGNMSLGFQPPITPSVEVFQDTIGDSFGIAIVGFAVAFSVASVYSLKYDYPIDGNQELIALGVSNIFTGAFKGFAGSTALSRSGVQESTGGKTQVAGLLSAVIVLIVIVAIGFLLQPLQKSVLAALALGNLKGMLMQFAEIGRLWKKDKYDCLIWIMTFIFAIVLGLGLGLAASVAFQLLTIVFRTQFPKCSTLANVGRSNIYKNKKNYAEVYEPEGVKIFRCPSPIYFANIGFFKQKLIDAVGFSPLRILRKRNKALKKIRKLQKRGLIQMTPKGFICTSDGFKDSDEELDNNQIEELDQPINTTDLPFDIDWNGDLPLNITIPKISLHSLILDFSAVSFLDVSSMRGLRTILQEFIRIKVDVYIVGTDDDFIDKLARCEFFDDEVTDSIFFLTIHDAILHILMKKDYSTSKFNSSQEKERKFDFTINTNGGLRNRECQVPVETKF
The experiment in a line: Transepithelial oxalate transport in FRT monolayers expressing SLC26A3. It counts as cell-based. The note with it: pretreatment 15 min, even at 0.1 μM; 500 μM oxalate gradient. The protocol: In order to determine the effects of DRAinh-A270 on oxalate transport at physiologically relevant concentrations, transepithelial oxalate transport was measured in Fischer rat thyroid (FRT) monolayers expressing SLC26A3 (FRT-A3 cells) permeable filters and exposed to a 500 μM oxalate concentration gradient.
Oxalate transport rate plotted for studies done in FRT cells expressing SLC26A3 (FRT-A3) pretreated with indicated concentrations of DRAinh-A270 (or DMSO control) for 15 min prior to application of the oxalate gradient. FRT cells not expressing SLC26A3 (FRT-null) are shown as controls. Mean±S.E.M., n=6-12 wells per condition. One-way analysis of variance with post hoc Newman-Keuls multiple comparisons test, **p<0.01, ns: not significant.

Assay [2] concerns mouse distal colonic loops. The assay can be described thus: Oxalate absorption in closed distal colonic loops. The note with it: luminal 10 μM, 500 μM oxalate, 60 min. It counts as in vivo. The protocol:
To investigate DRAinh-A270 inhibition of intestinal oxalate transport, experiments were conducted using closed distal colonic loops in which SLC26A3 is the major apical membrane anion transporter. Colonic loops were injected with the solution containing 500 μM sodium oxalate and loop fluid was removed at 60 min to quantify remaining oxalate concentration. To avoid confounding effects of fluid absorption, Cl^−-free solution with amiloride (to block ENaC) was used.

A further assay deals with T2, DRA (Mus musculus, UniProt Q9WVC8).
T2 sequence (Q9WVC8 1-757): T1 sequence (Q9WVC8 1-757)
The assay can be described thus: Extracellular action: reversal of DRA inhibition after washout. The note with it: cells incubated 10 min at 5 times IC50; measured at 20-30 second after washout. Type of assay: cell-based. The protocol:
Inhibition was then measured without washout and at 20-30 second after washout.

In assay [3] the target is T1, SLC26A3. The assay can be described thus: SLC26A3 inhibition, concentration-dependence (high throughput screening and structure-activity studies). It counts as cell-based.

`Cc1c(CC(=O)O)c(=O)oc2c(C)c(OCc3cccc(I)c3)ccc12` [DRAinh-A270]: the “increased oxalate transport in FRT-A3 cells” value on SLC26A3 [1] is “largely blocked”. For the same compound, the “reduction of oxalate absorption compared to vehicle control” value in assay [2] is around 70%. For the same compound, the “reversal of inhibition after washout” value on DRA is “no reversal”.

The compound `CC(C)CN1C(=O)c2ccc(C(=O)Nc3ccccc3C(=O)O)cc2C1=O` [DRAinh-E0078] displayed an IC50 at SLC26A3 [3] (Class E, Table 1) of 690 nM.

At SLC26A3 [3] (Class E, Table 1), `Cc1ccc(N2C(=O)c3ccc(C(=O)Nc4ccccc4C(=O)O)cc3C2=O)cc1C` [DRAinh-E2333] returned a concentration for half-maximal inhibition (IC50) of 310 nM.

`Cc1cccc(NS(=O)(=O)c2nnc(NC(=O)c3cccc(C)c3)s2)c1` [DRAinh-F0165] came in with an IC50 against SLC26A3 [3] (Class F, Table 2) of 470 nM.

In turn, `COc1cccc(C(=O)Nc2nnc(S(=O)(=O)Nc3cccc(C)c3)s2)c1` [DRAinh-F0170] gave an IC50 against SLC26A3 [3] (Class F, Table 2) of 310 nM.

`Cc1ccc(COc2ccc3oc(-c4ccccc4)c(C(=O)O)c3c2)cc1` [DRAinh-H0163] came in with an IC50 against SLC26A3 [3] (Class H, Table 4) of 190 nM.

On to `O=C(O)c1c(-c2ccccc2)oc2ccc(OCc3ccc(Cl)c(Cl)c3)cc12` [DRAinh-H0493], for which, on SLC26A3 [3] (Class H, Table 4), the IC50 was 2300 nM.

For the compound `Cc1ccccc1COc1ccc2oc(-c3ccccc3)c(C(=O)O)c2c1` [DRAinh-H0696], at SLC26A3 [3] (Class H, Table 4), inhibition was half-maximal at 340 nM (IC50).

The values are drawn from US20250073242A1, “SLC26A3 INHIBITORS AND USE THEREOF” (THE REGENTS OF THE UNIVERSITY OF CALIFORNIA, priority 2021, published 2025).
